# In ChEMBL document CHEMBL5360652, “Drug Discovery Targeting Nuclear Receptor Binding SET Domain Protein 2 (NSD2)” (J Med Chem, 2023):
# Where a name gives a salt, the structure may show the parent alone.
# Tests used:
# [1] = molecular target: T1, Histone-lysine N-methyltransferase, H3 lysine-36 specific (Homo sapiens, UniProt Q96L73); assay: Inhibition of human recombinant NSD1 incubated for 2 hrs by AlphaLISA method
# [2] = molecular target: von Hippel-Lindau disease tumor suppressor/Histone-lysine N-methyltransferase NSD3 (Homo sapiens, UniProt P40337+Q9BZ95); assay: Protac activity at VHL/NSD3 in human MOLM-13 cells assessed as induction of NSD3 degradation incubated for 6 hrs by immunoblotting analysis; format: cell-based
# Sequence of von Hippel-Lindau disease tumor suppressor/Histone-lysine N-methyltransferase NSD3 (P40337 whole entry, one chain of several): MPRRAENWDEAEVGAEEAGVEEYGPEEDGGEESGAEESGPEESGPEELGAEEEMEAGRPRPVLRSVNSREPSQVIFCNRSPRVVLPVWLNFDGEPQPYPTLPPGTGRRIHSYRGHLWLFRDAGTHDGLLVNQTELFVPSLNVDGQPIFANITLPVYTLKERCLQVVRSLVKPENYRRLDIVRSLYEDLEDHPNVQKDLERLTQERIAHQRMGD
# [3] = molecular target: von Hippel-Lindau disease tumor suppressor/Histone-lysine N-methyltransferase NSD3 (Homo sapiens) (UniProt Q9BZ95+P40337); assay: Protac activity at VHL/NSD3 in human MOLM-13 cells assessed as induction of NSD3 degradation incubated for 48 hrs by immunoblotting analysis relative to control; format: cell-based
# Sequence of von Hippel-Lindau disease tumor suppressor/Histone-lysine N-methyltransferase NSD3 (Homo sapiens) (P40337 whole entry, looked up, one chain of several, the tested form may be a part): as the sequence (P40337 whole entry, one chain of several) above
# [4] = molecular target: T2, Histone-lysine N-methyltransferase NSD3 (Homo sapiens, UniProt Q9BZ95); assay: Binding affinity to human recombinant NSD3 PWWP1 domain assessed as dissociation constant
# T2 sequence (Q9BZ95 whole entry): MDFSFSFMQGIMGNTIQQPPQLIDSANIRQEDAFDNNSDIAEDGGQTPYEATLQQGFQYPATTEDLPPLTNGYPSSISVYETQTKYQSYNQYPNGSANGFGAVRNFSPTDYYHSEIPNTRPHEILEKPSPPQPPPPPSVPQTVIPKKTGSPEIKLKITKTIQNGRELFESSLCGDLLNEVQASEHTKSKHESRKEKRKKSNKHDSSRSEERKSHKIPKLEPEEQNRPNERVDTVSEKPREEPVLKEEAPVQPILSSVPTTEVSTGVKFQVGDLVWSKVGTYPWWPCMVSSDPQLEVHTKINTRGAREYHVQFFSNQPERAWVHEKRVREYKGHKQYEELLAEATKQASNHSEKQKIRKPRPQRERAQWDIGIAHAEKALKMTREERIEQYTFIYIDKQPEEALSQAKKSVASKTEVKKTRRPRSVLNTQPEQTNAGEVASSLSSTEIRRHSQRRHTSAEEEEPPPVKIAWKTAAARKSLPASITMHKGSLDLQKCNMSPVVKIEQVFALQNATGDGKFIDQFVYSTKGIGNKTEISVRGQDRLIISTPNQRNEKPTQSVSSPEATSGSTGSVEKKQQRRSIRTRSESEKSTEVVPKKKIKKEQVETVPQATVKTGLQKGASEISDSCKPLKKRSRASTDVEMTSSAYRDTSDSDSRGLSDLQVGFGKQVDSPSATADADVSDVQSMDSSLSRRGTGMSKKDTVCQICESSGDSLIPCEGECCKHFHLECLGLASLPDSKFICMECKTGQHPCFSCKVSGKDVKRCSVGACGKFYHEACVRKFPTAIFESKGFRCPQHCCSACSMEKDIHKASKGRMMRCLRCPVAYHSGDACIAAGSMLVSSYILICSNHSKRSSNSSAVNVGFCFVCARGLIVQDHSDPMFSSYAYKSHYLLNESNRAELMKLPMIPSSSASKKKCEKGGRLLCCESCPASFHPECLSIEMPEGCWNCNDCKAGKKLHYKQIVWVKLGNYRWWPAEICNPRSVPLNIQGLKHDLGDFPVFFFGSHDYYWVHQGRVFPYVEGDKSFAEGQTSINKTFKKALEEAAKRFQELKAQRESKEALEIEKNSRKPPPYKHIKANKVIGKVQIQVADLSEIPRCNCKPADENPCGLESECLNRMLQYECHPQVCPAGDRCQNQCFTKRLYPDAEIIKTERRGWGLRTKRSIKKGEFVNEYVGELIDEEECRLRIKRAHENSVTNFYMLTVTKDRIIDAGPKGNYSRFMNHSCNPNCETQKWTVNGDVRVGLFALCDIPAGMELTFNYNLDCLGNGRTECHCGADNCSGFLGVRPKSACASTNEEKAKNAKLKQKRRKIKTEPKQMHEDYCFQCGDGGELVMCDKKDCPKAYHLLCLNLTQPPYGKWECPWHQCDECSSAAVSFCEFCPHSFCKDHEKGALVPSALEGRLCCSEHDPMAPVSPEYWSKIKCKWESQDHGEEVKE
# [5] = molecular target: T1, Histone-lysine N-methyltransferase, H3 lysine-36 specific; assay: Binding affinity to NSD1 (unknown origin) assessed as dissociation constant by ITC assay
# [6] = molecular target: T1, Histone-lysine N-methyltransferase, H3 lysine-36 specific; assay: Inhibition of N-terminal hexa-histidine tagged NSD1 SET domain (1852 to 2105 residues) (unknown origin) expressed in Escherichia coli incubated for 2 hrs by ITC method
# [7] = Inhibition of N-terminal hexa-histidine tagged NSD3 SET domain (1066 to 1288 residues) (unknown origin) expressed in Escherichia coli incubated for 4 hrs by ITC method; parameters: species or system Homo sapiens
# [8] = molecular target: T3, Histone-lysine N-methyltransferase NSD2 (Homo sapiens) (UniProt O96028); assay: Inhibition of NSD2 (unknown origin) at 50 uM relative to control
# T3 sequence (whole entry): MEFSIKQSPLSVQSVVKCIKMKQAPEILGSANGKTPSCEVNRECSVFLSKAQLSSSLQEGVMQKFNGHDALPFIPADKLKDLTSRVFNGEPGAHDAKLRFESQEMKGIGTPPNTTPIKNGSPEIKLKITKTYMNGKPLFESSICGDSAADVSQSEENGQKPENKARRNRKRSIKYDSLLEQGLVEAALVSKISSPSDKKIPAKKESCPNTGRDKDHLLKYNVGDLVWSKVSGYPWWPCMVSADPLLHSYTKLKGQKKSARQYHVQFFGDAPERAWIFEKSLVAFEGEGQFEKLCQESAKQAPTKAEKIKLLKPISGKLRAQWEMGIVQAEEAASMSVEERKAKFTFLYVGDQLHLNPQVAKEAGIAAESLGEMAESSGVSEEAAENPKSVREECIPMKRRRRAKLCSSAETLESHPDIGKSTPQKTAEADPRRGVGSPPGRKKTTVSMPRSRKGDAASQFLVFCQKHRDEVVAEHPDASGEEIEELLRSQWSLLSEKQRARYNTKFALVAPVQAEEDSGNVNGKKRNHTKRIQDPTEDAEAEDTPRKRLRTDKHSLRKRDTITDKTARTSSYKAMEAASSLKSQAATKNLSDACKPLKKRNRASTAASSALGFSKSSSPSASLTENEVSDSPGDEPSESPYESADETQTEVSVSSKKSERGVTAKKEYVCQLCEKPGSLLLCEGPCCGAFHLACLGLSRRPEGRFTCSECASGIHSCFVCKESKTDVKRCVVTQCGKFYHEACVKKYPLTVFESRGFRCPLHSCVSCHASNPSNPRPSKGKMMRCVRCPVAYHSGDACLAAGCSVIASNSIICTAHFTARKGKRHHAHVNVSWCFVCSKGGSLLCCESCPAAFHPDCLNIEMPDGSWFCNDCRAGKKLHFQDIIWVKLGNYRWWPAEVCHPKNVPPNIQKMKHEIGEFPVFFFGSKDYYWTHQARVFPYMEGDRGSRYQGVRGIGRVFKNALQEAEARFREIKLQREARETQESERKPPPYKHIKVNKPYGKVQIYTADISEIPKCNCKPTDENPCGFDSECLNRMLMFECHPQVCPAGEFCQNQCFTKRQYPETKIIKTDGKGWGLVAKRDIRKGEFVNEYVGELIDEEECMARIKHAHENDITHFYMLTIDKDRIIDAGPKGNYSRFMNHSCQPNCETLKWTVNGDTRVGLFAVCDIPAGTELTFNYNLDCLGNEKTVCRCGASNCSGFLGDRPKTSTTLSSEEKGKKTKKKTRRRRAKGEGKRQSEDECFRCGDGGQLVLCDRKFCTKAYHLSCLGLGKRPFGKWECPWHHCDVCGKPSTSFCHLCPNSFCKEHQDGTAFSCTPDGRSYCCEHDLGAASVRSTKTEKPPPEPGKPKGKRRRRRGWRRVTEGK
# [9] = molecular target: T4, Histone-lysine N-methyltransferase NSD2 (Homo sapiens, UniProt O96028); assay: Inhibition of NSD2 (unknown origin)
# T4 sequence (O96028 whole entry): T3 sequence (whole entry)
# [10] = molecular target: T4, Histone-lysine N-methyltransferase NSD2; assay: Binding affinity to NSD2 PWWP1 domain (unknown origin) assessed as dissociation constant by SPR assay
# [11] = molecular target: T3, Histone-lysine N-methyltransferase NSD2 (Homo sapiens); assay: Induction of degradation of NSD2 in human U2OS cells assessed as maximum degradation relative to control; format: cell-based
# [12] = molecular target: T4, Histone-lysine N-methyltransferase NSD2; assay: Induction of degradation of NSD2 in human U2OS cells; format: cell-based
# [13] = molecular target: T1, Histone-lysine N-methyltransferase, H3 lysine-36 specific; assay: Inhibition of human recombinant NSD1 ([…] residues) expressed in Escherichia coli BL21 (DE3) incubated for 4 hrs by scintillation/filter assay
# [14] = molecular target: T2, Histone-lysine N-methyltransferase NSD3; assay: Inhibition of human recombinant NSD3 ([…] residues) expressed in Escherichia coli BL21 (DE3) incubated for 4 hrs by scintillation/filter assay
# [15] = molecular target: Histone-lysine N-methyltransferase NSD2 (Homo sapiens, UniProt O96028, E1099K); assay: Inhibition of NSD2 E1099K mutant (unknown origin)
# Sequence of Histone-lysine N-methyltransferase NSD2 (Homo sapiens, UniProt O96028, E1099K) (O96028 whole entry E1099K): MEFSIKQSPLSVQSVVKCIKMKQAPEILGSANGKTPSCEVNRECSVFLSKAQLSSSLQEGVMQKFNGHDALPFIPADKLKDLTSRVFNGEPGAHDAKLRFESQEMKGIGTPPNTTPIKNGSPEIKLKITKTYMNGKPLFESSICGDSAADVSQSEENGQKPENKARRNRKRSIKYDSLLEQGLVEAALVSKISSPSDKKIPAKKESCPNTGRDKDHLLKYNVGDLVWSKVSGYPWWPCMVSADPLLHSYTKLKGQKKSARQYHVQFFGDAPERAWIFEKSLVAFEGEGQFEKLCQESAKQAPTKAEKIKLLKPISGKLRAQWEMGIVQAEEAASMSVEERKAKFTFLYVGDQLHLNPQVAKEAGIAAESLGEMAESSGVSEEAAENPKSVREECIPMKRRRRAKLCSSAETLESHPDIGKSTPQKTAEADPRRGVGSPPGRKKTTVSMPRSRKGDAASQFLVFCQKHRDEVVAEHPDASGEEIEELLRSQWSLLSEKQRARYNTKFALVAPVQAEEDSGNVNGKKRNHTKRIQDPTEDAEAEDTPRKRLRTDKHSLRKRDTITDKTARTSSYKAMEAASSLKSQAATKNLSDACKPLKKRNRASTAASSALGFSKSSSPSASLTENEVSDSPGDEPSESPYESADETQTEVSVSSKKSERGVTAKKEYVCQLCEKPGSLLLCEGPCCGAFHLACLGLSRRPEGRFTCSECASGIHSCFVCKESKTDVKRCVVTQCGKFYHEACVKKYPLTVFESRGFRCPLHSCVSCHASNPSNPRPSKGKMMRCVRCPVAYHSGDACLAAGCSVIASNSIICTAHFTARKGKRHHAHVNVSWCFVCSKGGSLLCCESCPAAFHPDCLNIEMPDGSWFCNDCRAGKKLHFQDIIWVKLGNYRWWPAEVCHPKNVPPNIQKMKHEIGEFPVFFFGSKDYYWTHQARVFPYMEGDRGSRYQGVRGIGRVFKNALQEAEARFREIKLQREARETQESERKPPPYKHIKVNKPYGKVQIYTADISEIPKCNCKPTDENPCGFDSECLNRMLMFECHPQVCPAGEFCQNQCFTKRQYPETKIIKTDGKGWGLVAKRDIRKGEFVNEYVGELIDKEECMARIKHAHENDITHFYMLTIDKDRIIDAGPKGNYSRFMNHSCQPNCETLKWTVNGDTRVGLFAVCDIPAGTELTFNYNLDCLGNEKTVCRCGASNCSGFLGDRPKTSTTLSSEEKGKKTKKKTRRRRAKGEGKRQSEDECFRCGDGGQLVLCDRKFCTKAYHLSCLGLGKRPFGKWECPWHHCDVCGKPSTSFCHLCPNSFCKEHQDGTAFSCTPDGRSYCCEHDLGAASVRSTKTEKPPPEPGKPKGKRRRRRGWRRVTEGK
# [16] = molecular target: Histone-lysine N-methyltransferase NSD2 (Homo sapiens, UniProt O96028, T1150A); assay: Inhibition of NSD2 T1150A mutant (unknown origin)
# Sequence of Histone-lysine N-methyltransferase NSD2 (Homo sapiens, UniProt O96028, T1150A) (O96028 whole entry T1150A): as the sequence (O96028 whole entry E1099K) above, with K1099E, T1150A counted along it
# [17] = test system: U2OS; assay: Cytotoxicity against human U2OS cells assessed as cell growth inhibition; format: functional
# [18] = molecular target: T1, Histone-lysine N-methyltransferase, H3 lysine-36 specific; assay: Inhibition of NSD1 SET domain (1852 to 2105 residues) (unknown origin) expressed in Escherichia coli BL21 (DE3)
# [19] = molecular target: T4, Histone-lysine N-methyltransferase NSD2; assay: Binding affinity to NSD2 PWWP1 domain (unknown origin) assessed as dissociation constant
# [20] = molecular target: T3, Histone-lysine N-methyltransferase NSD2 (Homo sapiens); assay: Inhibition of NSD2 (unknown origin) at 10 uM relative to control
# [21] = molecular target: Histone-lysine N-methyltransferase 2A (Homo sapiens) (UniProt Q03164); assay: Inhibition of MLL1 (unknown origin) at 10 uM relative to control
# [22] = molecular target: Histone-lysine N-methyltransferase SETDB1 (Homo sapiens) (UniProt Q15047); assay: Inhibition of SETDB1 (unknown origin) at 10 uM relative to control
# [23] = test system: PC-3; assay: Antiproliferative activity against human PC-3 cells assessed as cell growth inhibition incubated for 48 hrs by MTT assay; format: functional, cell-based; conditions: PC-3, 48 h
# [24] = molecular target: T2, Histone-lysine N-methyltransferase NSD3; assay: Antagonist activity against recombinant human GST-tagged NSD3 PWWP1 domain (247 to 398 residues) expressed in Escherichia coli BL21(DE3) incubated for 60 mins by TR-FRET assay
# [25] = test system: Respiratory syncytial virus; assay: Antiviral activity against RSV assessed as viral growth inhibition; format: functional, organism-based; conditions: human respiratory syncytial virus
# T1 sequence (Q96L73 whole entry): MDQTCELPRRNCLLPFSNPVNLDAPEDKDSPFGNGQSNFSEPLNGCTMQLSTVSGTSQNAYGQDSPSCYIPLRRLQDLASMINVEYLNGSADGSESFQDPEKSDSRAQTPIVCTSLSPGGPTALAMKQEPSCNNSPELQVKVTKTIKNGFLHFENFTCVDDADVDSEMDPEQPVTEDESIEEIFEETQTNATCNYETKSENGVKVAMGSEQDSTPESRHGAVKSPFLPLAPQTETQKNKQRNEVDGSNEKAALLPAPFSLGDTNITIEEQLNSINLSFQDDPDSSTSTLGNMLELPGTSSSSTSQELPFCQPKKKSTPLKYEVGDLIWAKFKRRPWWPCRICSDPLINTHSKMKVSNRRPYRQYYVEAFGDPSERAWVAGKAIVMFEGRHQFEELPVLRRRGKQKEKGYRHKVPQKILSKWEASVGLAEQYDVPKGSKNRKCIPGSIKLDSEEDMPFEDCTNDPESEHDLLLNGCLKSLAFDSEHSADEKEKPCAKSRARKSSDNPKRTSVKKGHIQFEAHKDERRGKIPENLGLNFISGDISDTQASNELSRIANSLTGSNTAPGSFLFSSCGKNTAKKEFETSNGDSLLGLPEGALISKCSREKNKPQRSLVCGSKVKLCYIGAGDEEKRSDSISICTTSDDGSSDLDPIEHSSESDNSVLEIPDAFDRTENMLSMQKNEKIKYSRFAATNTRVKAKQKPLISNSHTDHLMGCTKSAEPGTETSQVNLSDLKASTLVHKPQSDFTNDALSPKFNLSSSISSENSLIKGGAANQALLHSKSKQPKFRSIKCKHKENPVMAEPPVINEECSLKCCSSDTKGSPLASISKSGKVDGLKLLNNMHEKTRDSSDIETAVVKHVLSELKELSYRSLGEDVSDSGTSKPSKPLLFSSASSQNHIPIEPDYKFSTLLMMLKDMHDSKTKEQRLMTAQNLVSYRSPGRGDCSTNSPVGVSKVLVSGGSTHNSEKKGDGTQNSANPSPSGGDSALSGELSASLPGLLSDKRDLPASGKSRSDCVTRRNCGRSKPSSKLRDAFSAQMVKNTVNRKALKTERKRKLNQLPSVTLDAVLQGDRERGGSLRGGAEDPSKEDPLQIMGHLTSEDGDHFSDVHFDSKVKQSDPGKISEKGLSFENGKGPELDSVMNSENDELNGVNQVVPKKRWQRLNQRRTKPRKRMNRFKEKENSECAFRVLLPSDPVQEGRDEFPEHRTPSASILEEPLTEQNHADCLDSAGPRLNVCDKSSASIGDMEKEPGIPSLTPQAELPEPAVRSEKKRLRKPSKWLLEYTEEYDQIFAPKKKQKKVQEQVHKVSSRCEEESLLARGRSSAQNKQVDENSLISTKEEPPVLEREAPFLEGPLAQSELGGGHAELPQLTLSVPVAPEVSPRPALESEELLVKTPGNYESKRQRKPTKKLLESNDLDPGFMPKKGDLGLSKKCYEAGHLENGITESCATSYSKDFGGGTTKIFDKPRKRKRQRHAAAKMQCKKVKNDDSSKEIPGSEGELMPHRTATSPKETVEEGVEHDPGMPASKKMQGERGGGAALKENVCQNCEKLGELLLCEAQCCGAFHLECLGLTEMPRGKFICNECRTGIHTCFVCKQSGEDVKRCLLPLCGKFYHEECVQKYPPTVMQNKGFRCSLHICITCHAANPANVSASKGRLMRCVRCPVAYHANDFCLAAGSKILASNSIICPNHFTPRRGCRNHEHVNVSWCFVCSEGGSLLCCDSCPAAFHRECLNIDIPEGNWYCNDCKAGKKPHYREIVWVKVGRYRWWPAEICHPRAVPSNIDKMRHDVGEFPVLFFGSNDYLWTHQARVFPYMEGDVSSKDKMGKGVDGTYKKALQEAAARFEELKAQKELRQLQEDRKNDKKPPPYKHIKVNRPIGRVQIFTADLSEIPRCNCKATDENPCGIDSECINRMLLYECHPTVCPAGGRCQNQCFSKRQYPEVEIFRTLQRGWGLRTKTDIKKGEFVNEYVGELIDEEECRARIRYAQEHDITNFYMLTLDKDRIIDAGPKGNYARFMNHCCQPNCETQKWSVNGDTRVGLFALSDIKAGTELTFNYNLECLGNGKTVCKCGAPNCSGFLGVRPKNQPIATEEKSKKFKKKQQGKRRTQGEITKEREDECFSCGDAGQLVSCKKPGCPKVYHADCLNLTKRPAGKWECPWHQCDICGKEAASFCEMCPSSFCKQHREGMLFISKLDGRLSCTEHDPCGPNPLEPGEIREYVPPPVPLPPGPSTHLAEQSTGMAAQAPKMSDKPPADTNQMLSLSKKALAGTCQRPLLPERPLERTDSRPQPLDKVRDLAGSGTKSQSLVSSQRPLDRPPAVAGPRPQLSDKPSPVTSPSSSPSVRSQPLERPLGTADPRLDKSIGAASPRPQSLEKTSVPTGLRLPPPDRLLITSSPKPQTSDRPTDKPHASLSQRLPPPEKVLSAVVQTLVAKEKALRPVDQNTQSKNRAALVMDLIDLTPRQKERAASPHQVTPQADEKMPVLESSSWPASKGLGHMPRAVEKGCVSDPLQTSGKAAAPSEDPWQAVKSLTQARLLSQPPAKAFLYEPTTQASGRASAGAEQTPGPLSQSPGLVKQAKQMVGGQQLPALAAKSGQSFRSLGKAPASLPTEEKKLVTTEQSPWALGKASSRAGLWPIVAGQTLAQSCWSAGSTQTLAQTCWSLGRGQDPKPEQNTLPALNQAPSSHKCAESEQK
structure (smiles),measurement,setting,value
COC[C@@]1(N)CCCN(c2cnc(-c3cc(Cl)ccc3F)cc2Cn2cnc3c(N)ncnc32)C1,IC50,[1],0.248 µM
COC[C@@]1(N)CCCN(c2cnc(-c3ccc(F)c(F)c3)cc2Cn2cnc3c(N)ncnc32)C1,IC50,[1],0.16 µM
Cc1cc(CNCCCC(=O)NCCCCCCCCC(=O)N[C@H](C(=O)N2C[C@H](O)C[C@H]2C(=O)N[C@@H](C)c2ccc(-c3scnc3C)cc2)C(C)(C)C)cc(C)c1-c1ncn(C)c1-c1ccnc2cc(F)ccc12,EC50,[2],4.9 µM
same,Emax,[3],80%
same,Kd,[4],1.3 µM
CCN(CC)CCCC(C)Nc1c2ccc(Cl)cc2nc2ccc(OC)cc12 (centres undefined) [QUINACRINE DIHYDROCHLORIDE],Kd,[5],1.4 µM
N#CSc1cc(O)c2nc(N)sc2c1,IC50,[6],< 20 µM
CC1CN1c1cc(O)c2nc(N)sc2c1 (centres undefined),IC50,[7],14.3 µM
Nc1ncnc2c1ncn2Cc1cc(-c2ccc(F)c(F)c2)ncc1N1CCC[C@](N)(COC2CC2)C1,IC50,[1],0.214 µM
COC[C@@]1(N)CCCN(c2cnc(-c3ccc(F)cc3F)cc2Cn2cnc3c(N)ncnc32)C1,IC50,[1],0.225 µM
C=CC(=O)Nc1cc(NC(=O)Nc2ccc3nnsc3c2)cc(C(=O)OC)c1,inhibition,[8],92%
COc1ccc(-c2cc(Cn3cnc4c(N)ncnc43)c(N3CCC[C@](N)(COC4CCC4)C3)cn2)cc1F,IC50,[1],0.27 µM
Cn1nnc2cc(NC(=O)Nc3cccc([N+](=O)[O-])c3)ccc21,IC50,[9],8.3 µM
O=C1c2c(O)ccc(O)c2C(=O)C2C(NCCNCCO)=CC=C(NCCNCCO)C12 (centres undefined),Kd,[5],1.2 µM
CC(=O)c1ccc(-c2cc(NC(=O)Nc3ccc4nnsc4c3)cc(C(F)(F)F)c2)s1,inhibition,[8],99%
N#Cc1cccc(NC(=O)Nc2ccc3nnsc3c2)c1,inhibition,[8],92%
N=C(N)NCCC[C@H](N)C(=O)NCCCCCCNC(=O)c1ccc(NC(=O)c2ccc(CN(C(=O)c3ccc4c(c3)OCC(=O)N4)C3CC3)cc2)cc1,Kd,[10],0.014 µM
same,Emax,[11],81%
same,EC50,[12],1.2 µM
CCN(CC)CCCC(C)Nc1ccnc2cc(Cl)ccc12 (centres undefined) [CHLOROQUINE PHOSPHATE],Kd,[5],4.7 µM
O=C(Nc1cccc([N+](=O)[O-])c1)Nc1ccc2nnsc2c1,inhibition,[8],96%
COc1cc2nc(N3CCCN(C)CC3)nc(NC3CCN(Cc4ccccc4)CC3)c2cc1OC,IC50,[13],112 µM
same,IC50,[14],95 µM
O=C1C(Cl)=C(NCCN2CCOCC2)C(=O)c2ncccc21,IC50,[15],0.11 µM
same,IC50,[16],0.17 µM
same,CC50,[17],0.27 µM
O=C1O[C@@H](C(=O)N2CCN(Cc3nc4sc5c(c4c(=O)[nH]3)CCCC5)CC2)Cc2ccccc21,IC50,[18],> 1000 µM
O=C1COc2cc(C(=O)N(Cc3cccs3)C3CC3)ccc2N1,Kd,[19],3.4 µM
NCCCCCCNC(=O)c1ccc(NC(=O)c2ccc(CN(C(=O)c3ccc4c(c3)OCC(=O)N4)C3CC3)cc2)cc1,Emax,[11],79%
same,EC50,[12],0.35 µM
COC(=O)c1cc(NC(=O)Nc2ccc3nnsc3c2)cc(C(=O)OC)c1,inhibition,[8],95%
same,inhibition,[20],97%
same,inhibition,[21],79%
same,inhibition,[22],85%
same,IC50,[23],< 10 µM
O=C(CCCC[C@@H]1SC[C@@H]2NC(=O)N[C@@H]21)NCCOCCOCCOCCOCCOCCOCCOCCOCCOCCOCCOCCNC(=O)c1ccc(NC(=O)c2ccc(CN(C(=O)c3ccc4c(c3)OCC(=O)N4)C3CC3)cc2)cc1,Kd,[19],0.046 µM
same,Kd,[4],0.046 µM
Cc1cc(CN2CCC(N)CC2)cc(C)c1-c1ncn(C)c1-c1ccc(C#N)c2ccccc12,IC50,[24],0.11 µM
same,IC50,[25],6.3 µM
